Experimental data: patent US20240207291A1, “METHODS FOR TREATING POXVIRUS INFECTIONS” (priority 2022, published 2024)
Values joined by “and” are separate entries in the source; they are usually repeats but may differ in a detail not shown here. Equal values may be shown once. Read-outs that look alike come from different tables or passages of the source.

Tests used:
[1] = in vitro; details: hamster
[2] = test system: vaccinia virus (modified vaccinia virus Ankara; MVA); assay: microbe, parasite or virus in culture; assay type: cell-based
[3] = test system: Vaccinia virus (MVA strain); assay type: cell-based
[4] = in vitro; details: hamster, BHK-21 cells, no virus, 2 days
[5] = CC50, Average of Tests 1-2 (Table 1)
[6] = CC50, Average, Tests 1-3 (Table 1A)
[7] = CC50, Test 2, uninfected BHK-21 cells, 3 days
[8] = CC50, Test 3, uninfected BHK-21 cells, 3 days

SMILES | CC50 [1, 5] [µM] | CC50 [1, 6] [µM] | CC50 ([1]; CC50, Test 1, uninfected BHK-21 cells, 3 days) [µM] | CC50 [1, 7] [µM] | CC50 [1, 8] [µM] | EC50 [2] | EC50 ([2]; Orthopoxvirus vaccinia) [µM] | EC50 ([3]; read-out: Average EC50 ± SD) [µM] | EC50 ([3]; read-out: EC50) [µM] | CC50 ([4]; CC50, n=3) [µM] | CC50 ([4]; CC50 ± SD, n=4) [µM]
Nc1ccn(C[C@@H](CO)OCP(=O)(O)O)c(=O)n1 [Cidofovir] | > 100 | > 73 | > 100 | > 100 | 73 | 2.6 µM and 7.2 µM | 4.9 |  |  |  | 
CCC(CC)COC(=O)[C@H](C)N[P@](=O)(OC[C@H]1O[C@@](C#N)(c2ccc3c(N)ncnn23)[C@H](O)[C@@H]1O)Oc1ccccc1 [Compound of Formula Ia, (S)-2-ethylbutyl 2-(((S)-(((2R,3S,4R,5R)-5-(4-aminopyrrolo[2,1-f][1,2,4]triazin-7-yl)-5-cyano-3,4-dihydroxytetrahydrofuran-2-yl)methoxy)(phenoxy)phosphoryl)amino)propanoate] | 12.8 | > 2.5 |  | 2.5 | > 50 | 2.3 µM and 0.55 µM | 1.43 | 0.773 ± 0.131 | 0.726 | 26.1 | 28.8 ± 11.5
